# Test: Example 2: liver biomarkers (albumin, gamma glutamyl transferase, total bilirubin, ALT, AST, ALP) in short bowel syndrome patients, every four weeks for 24 weeks; also sorted by >10% change from baseline
# Assay type: in vivo, Human
# Details: 0.05 mg/kg/d; for Bilirubin: subjects Within 10% of Baseline / Bilirubin: subjects with >10% decrease from Baseline / Bilirubin: subjects with >10% increase from Baseline / ALT: subjects Within 10% of Baseline / ALT: subjects with >10% decrease from Baseline / ALT: subjects with >10% increase from Baseline / AST: subjects Within 10% of Baseline / AST: subjects with >10% decrease from Baseline / AST: subjects with >10% increase from Baseline / Albumin: subjects Within 10% of Baseline / Albumin: subjects with >10% decrease from Baseline / Albumin: subjects with >10% increase from Baseline / Alkaline Phosphatase: subjects Within 10% of Baseline / Alkaline Phosphatase: subjects with >10% decrease from Baseline / Alkaline Phosphatase: subjects with >10% increase from Baseline: m = 40
# Protocol: To further confirm the results of Example 1, a further study was conducted involving more individuals and additional diagnostic biomarkers. Human patients with short bowel syndrome were divided into two groups: a control group (43 total individuals) to receive placebo, and an experimental group (42 total individuals) to receive teduglutide at 0.05 mg/kg/day throughout the study. Patients were treated by subcutaneous injection of placebo or the appropriate dose of teduglutide. Known biomarkers of liver function were monitored every four weeks, for 24 weeks. The liver biomarkers tested included albumin, gamma glutamyl transferase, total bilirubin, ALT and AST and ALP. Before administration of placebo or teduglutide, diagnostic biomarker levels were tested to establish a baseline for each individual.
# To determine the effect of GLP-2 on the levels of the diagnostic biomarkers, the average level of each biomarker was measured for the placebo and teduglutide treated groups for each visit. Furthermore, the average change from baseline was calculated using the established baseline values. For FIGS. 17-28, p-values were calculated using the t-test.
# P values are provided, which were calculated for each distribution of biomarker changes for each week using the chi-squared test.
compound,measurement,setting,value
CC[C@H](C)[C@H](NC(=O)[C@H](Cc1ccccc1)NC(=O)[C@H](CC(=O)O)NC(=O)[C@H](CCCNC(=N)N)NC(=O)[C@H](C)NC(=O)[C@H](C)NC(=O)[C@H](CC(C)C)NC(=O)[C@H](CC(N)=O)NC(=O)[C@H](CC(=O)O)NC(=O)[C@H](CC(C)C)NC(=O)[C@@H](NC(=O)[C@@H](NC(=O)[C@H](CC(N)=O)NC(=O)[C@H](CCSC)NC(=O)[C@H](CCC(=O)O)NC(=O)[C@H](CC(=O)O)NC(=O)[C@H](CO)NC(=O)[C@H](Cc1ccccc1)NC(=O)[C@H](CO)NC(=O)CNC(=O)[C@H](CC(=O)O)NC(=O)CNC(=O)[C@@H](N)Cc1c[nH]cn1)[C@@H](C)O)[C@@H](C)CC)C(=O)N[C@@H](CC(N)=O)C(=O)N[C@@H](Cc1c[nH]c2ccccc12)C(=O)N[C@@H](CC(C)C)C(=O)N[C@H](C(=O)N[C@@H](CCC(N)=O)C(=O)N[C@H](C(=O)N[C@@H](CCCCN)C(=O)N[C@H](C(=O)N[C@H](C(=O)N[C@@H](CC(=O)O)C(=O)O)[C@@H](C)O)[C@@H](C)CC)[C@@H](C)O)[C@@H](C)CC [teduglutide],Bilirubin: subjects Within 10% of Baseline,Week 2,5 (12.5%) n (%)
same,Bilirubin: subjects with >10% decrease from Baseline,Week 2,28 (70.0%) n (%)
same,Bilirubin: subjects with >10% increase from Baseline,Week 2,7 (17.5%) n (%)
same,"ALT Change from Baseline, Max",Week 4,29 U/L
same,"ALT Change from Baseline, Mean",Week 4,−9.2 U/L
same,"ALT Change from Baseline, Median",Week 4,−7 U/L
same,"ALT Change from Baseline, Min",Week 4,−44 U/L
same,"ALT Observed Value, Max",Week 4,104 U/L
same,"ALT Observed Value, Median",Week 4,29 U/L
same,"ALT Observed Value, Min",Week 4,8 U/L
same,"AST Change from Baseline, Max",Week 4,43 U/L
same,"AST Change from Baseline, Mean",Week 4,−3.5 U/L
same,"AST Change from Baseline, Median",Week 4,−5 U/L
same,"AST Change from Baseline, Min",Week 4,−31 U/L
same,"AST Observed Value, Max",Week 4,89 U/L
same,"AST Observed Value, Min",Week 4,13 U/L
same,"Albumin Change from Baseline, Max",Week 4,5 g/L
same,"Albumin Change from Baseline, Mean",Week 4,-0.7 g/L
same,"Albumin Change from Baseline, Median",Week 4,-1 g/L
same,"Albumin Change from Baseline, Min",Week 4,-7 g/L
same,"Albumin Observed Value, Max",Week 4,47 g/L
same,"Albumin Observed Value, Median",Week 4,42 g/L
same,"Albumin Observed Value, Min",Week 4,34 g/L
same,"Alkaline Phosphatase Change from Baseline, Max",Week 4,34 U/L
same,"Alkaline Phosphatase Change from Baseline, Min",Week 4,−89 U/L
same,"Alkaline Phosphatase Observed Value, Max",Week 4,307 U/L
same,"Alkaline Phosphatase Observed Value, Min",Week 4,54 U/L
same,"Bilirubin Change from Baseline, Max",Week 4,9.0 µmol/L
same,"Bilirubin Change from Baseline, Mean",Week 4,-1.10 µmol/L
same,"Bilirubin Change from Baseline, Median",Week 4,-1.5 µmol/L
same,"Bilirubin Change from Baseline, Min",Week 4,-14.2 µmol/L
same,"Bilirubin Observed Value, Max",Week 4,54.0 µmol/L
same,"Bilirubin Observed Value, Min",Week 4,3.4 µmol/L
same,"Gamma Glutamyl Transferase Change from Baseline, Max",Week 4,105 U/L
same,"Gamma Glutamyl Transferase Change from Baseline, Mean",Week 4,1.7 U/L
same,"Gamma Glutamyl Transferase Change from Baseline, Median",Week 4,−0.5 U/L
same,"Gamma Glutamyl Transferase Change from Baseline, Min",Week 4,−88 U/L
same,"Gamma Glutamyl Transferase Observed Value, Max",Week 4,309 U/L
same,"Gamma Glutamyl Transferase Observed Value, Min",Week 4,12 U/L
same,ALT: subjects Within 10% of Baseline,Week 4,8 (20.0%) n (%)
same,ALT: subjects with >10% decrease from Baseline,Week 4,26 (65.0%) n (%)
same,ALT: subjects with >10% increase from Baseline,Week 4,6 (15.0%) n (%)
same,AST: subjects Within 10% of Baseline,Week 4,6 (15.0%) n (%)
same,AST: subjects with >10% decrease from Baseline,Week 4,26 (65.0%) n (%)
same,AST: subjects with >10% increase from Baseline,Week 4,8 (20.0%) n (%)
same,Albumin: subjects Within 10% of Baseline,Week 4,35 (87.5%) n (%)
same,Albumin: subjects with >10% decrease from Baseline,Week 4,3 (7.5%) n (%)
same,Albumin: subjects with >10% increase from Baseline,Week 4,2 (5.0%) n (%)
same,Alkaline Phosphatase: subjects Within 10% of Baseline,Week 4,16 (40.0%) n (%)
same,Alkaline Phosphatase: subjects with >10% decrease from Baseline,Week 4,22 (55.0%) n (%)
same,Alkaline Phosphatase: subjects with >10% increase from Baseline,Week 4,2 (5.0%) n (%)
same,Bilirubin: subjects Within 10% of Baseline,Week 4,7 (17.5%) n (%)
same,Bilirubin: subjects with >10% decrease from Baseline,Week 4,19 (47.5%) n (%)
same,Bilirubin: subjects with >10% increase from Baseline,Week 4,14 (35.0%) n (%)
same,"ALT Change from Baseline, Max",Week 8,20 U/L
same,"ALT Change from Baseline, Median",Week 8,−5.5 U/L
same,"ALT Change from Baseline, Min",Week 8,−65 U/L
same,"ALT Observed Value, Max",Week 8,138 U/L
same,"ALT Observed Value, Median",Week 8,26 U/L
same,"ALT Observed Value, Min",Week 8,9 U/L
same,"AST Change from Baseline, Max",Week 8,17 U/L
same,"AST Change from Baseline, Mean",Week 8,−5.1 U/L
same,"AST Change from Baseline, Median",Week 8,−5 U/L
same,"AST Change from Baseline, Min",Week 8,−46 U/L
same,"AST Observed Value, Max",Week 8,63 U/L
same,"AST Observed Value, Min",Week 8,8 U/L
same,"Albumin Change from Baseline, Max",Week 8,4 g/L
same,"Albumin Change from Baseline, Mean",Week 8,-0.7 g/L
same,"Albumin Change from Baseline, Median",Week 8,-1 g/L
same,"Albumin Change from Baseline, Min",Week 8,-5 g/L
same,"Albumin Observed Value, Max",Week 8,48 g/L
same,"Albumin Observed Value, Median",Week 8,42 g/L
same,"Albumin Observed Value, Min",Week 8,36 g/L
same,"Alkaline Phosphatase Change from Baseline, Max",Week 8,19 U/L
same,"Alkaline Phosphatase Change from Baseline, Min",Week 8,−105 U/L
same,"Alkaline Phosphatase Observed Value, Max",Week 8,341 U/L
same,"Alkaline Phosphatase Observed Value, Median",Week 8,94 U/L
same,"Alkaline Phosphatase Observed Value, Min",Week 8,46 U/L
same,"Bilirubin Change from Baseline, Max",Week 8,6.8 µmol/L
same,"Bilirubin Change from Baseline, Mean",Week 8,-1.60 µmol/L
same,"Bilirubin Change from Baseline, Median",Week 8,-0.95 µmol/L
same,"Bilirubin Change from Baseline, Min",Week 8,-14.9 µmol/L
same,"Bilirubin Observed Value, Max",Week 8,61.8 µmol/L
same,"Bilirubin Observed Value, Min",Week 8,3.4 µmol/L
same,"Gamma Glutamyl Transferase Change from Baseline, Max",Week 8,77 U/L
same,"Gamma Glutamyl Transferase Change from Baseline, Mean",Week 8,−5.7 U/L
same,"Gamma Glutamyl Transferase Change from Baseline, Median",Week 8,−5.5 U/L
same,"Gamma Glutamyl Transferase Change from Baseline, Min",Week 8,−145 U/L
same,"Gamma Glutamyl Transferase Observed Value, Max",Week 8,281 U/L
same,"Gamma Glutamyl Transferase Observed Value, Median",Week 8,46 U/L
same,"Gamma Glutamyl Transferase Observed Value, Min",Week 8,6 U/L
same,ALT: subjects Within 10% of Baseline,Week 8,7 (17.5%) n (%)
same,ALT: subjects with >10% decrease from Baseline,Week 8,26 (65.0%) n (%)
same,ALT: subjects with >10% increase from Baseline,Week 8,7 (17.5%) n (%)
same,AST: subjects Within 10% of Baseline,Week 8,8 (20.0%) n (%)
same,AST: subjects with >10% decrease from Baseline,Week 8,24 (60.0%) n (%)
same,AST: subjects with >10% increase from Baseline,Week 8,8 (20.0%) n (%)
same,Albumin: subjects Within 10% of Baseline,Week 8,38 (95.0%) n (%)
same,Albumin: subjects with >10% decrease from Baseline,Week 8,1 (2.5%) n (%)
same,Albumin: subjects with >10% increase from Baseline,Week 8,1 (2.5%) n (%)
same,Alkaline Phosphatase: subjects Within 10% of Baseline,Week 8,13 (32.5%) n (%)
same,Alkaline Phosphatase: subjects with >10% decrease from Baseline,Week 8,25 (62.5%) n (%)
same,Alkaline Phosphatase: subjects with >10% increase from Baseline,Week 8,2 (5.0%) n (%)

# Reference: patent publication US20130157954A1, “METHODS FOR TREATMENT OR PROPHYLAXIS OF KIDNEY OR LIVER DYSFUNCTION” (NPS PHARMACEUTICALS, INC., priority 2010, published 2013)
